Where a name gives a salt, the structure may show the parent alone.
Target: PAI-1 (Homo sapiens, UniProt P05121)
Assay: biochemical
Assay type: biochemical
Details: for IC50: PAI chromogenic substrate assay
Summary of the method: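 Compound preincubated with PAI-1 before addition to a tPA system; residual tPA converts plasminogen to plasmin, which cleaves chromogenic substrate S2251. Released p-nitroaniline read at 405 nm; values given as % inhibition at set concentrations or IC50.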

PAI-1, sequence (P05121 24-402): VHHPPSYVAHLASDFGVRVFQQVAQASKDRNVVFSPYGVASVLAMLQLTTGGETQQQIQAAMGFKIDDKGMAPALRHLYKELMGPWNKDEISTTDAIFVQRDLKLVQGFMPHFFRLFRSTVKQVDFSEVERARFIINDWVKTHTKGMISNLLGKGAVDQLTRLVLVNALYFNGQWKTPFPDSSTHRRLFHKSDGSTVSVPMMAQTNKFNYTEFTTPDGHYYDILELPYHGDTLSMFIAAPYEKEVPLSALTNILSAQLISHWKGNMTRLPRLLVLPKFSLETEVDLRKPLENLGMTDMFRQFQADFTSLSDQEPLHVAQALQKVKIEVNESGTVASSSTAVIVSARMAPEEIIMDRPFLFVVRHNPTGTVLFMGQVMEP

% Inhibition (5 μm) [%] | % Inhibition (20 μm) [%] | IC50 [µM] | SMILES
78 | 80 | 3.1 | Cc1ccc(/C=c2\[nH]c(=O)/c(=C/c3ccc(SCCN(C)C)cc3)[nH]c2=O)cc1 [Compound 5463.HCl, (3Z,6Z)-3-(4-(2-Dimethylaminoethylthio)benzylidene)-6-(4-methylbenzylidene)-2,5-piperazinedione]
19 | 58 | 10.5 | COc1ccc(/C=c2\[nH]c(=O)/c(=C/c3ccc(SCCN(C)C)s3)[nH]c2=O)cc1 [Compound 5464, (3Z,6Z)-3-(5-(2-Dimethylaminoethylthio)-2-thienyl)methylene-6-(4-methoxybenzylidene)-2,5-piperazinedione]
17 | 61 | 11.2 | COc1ccc(/C=c2\[nH]c(=O)/c(=C/c3ccc(SCCN(C)C)s3)[nH]c2=O)cc1 [Compound 5464.HCl, (3Z,6Z)-3-(5-(2-Dimethylaminoethylthio)-2-thienyl)methylene-6-(4-methoxybenzylidene)-2,5-piperazinedione]
32 | 73 | 3.6 | CN(C)CCSc1ccc(/C=c2\[nH]c(=O)/c(=C/c3ccc(Cl)c(Cl)c3)[nH]c2=O)cc1 [Compound 5465, (3Z,6Z)-3-(3,4-Dichlorobenzylidene)-6-(4-(2-dimethylaminoethylthio)benzylidene)-2,5-piperazinedione]
42 | 76 | 2.6 | CN(C)CCSc1ccc(/C=c2\[nH]c(=O)/c(=C/c3ccc(Cl)c(Cl)c3)[nH]c2=O)cc1 [Compound 5465.HCl, (3Z,6Z)-3-(3,4-Dichlorobenzylidene)-6-(4-(2-dimethylaminoethylthio)benzylidene)-2,5-piperazinedione]
1 | 0 |  | CN(C)CCSc1ccc(/C=c2\[nH]c(=O)/c(=C/c3cccnc3)[nH]c2=O)s1 [Compound 5470, (3Z,6Z)-6-(5-(2-Dimethylaminoethylthio)-2-thienyl)methylene-3-(3-pyridylmethylene)-2,5-piperazinedione]
1 | 1 |  | CN(C)CCSc1ccc(/C=c2\[nH]c(=O)/c(=C/c3cccnc3)[nH]c2=O)s1 [Compound 5470.HCl, (3Z,6Z)-6-(5-(2-Dimethylaminoethylthio)-2-thienyl)methylene-3-(3-pyridylmethylene)-2,5-piperazinedione]
0 | 1 |  | CN(C)CCSc1ccc(/C=c2\[nH]c(=O)/c(=C/c3ccccn3)[nH]c2=O)s1 [Compound 5471, (3Z,6Z)-6-(5-(2-Dimethylaminoethylthio)-2-thienyl)methylene-3-(2-pyridylmethylene)-2,5-piperazinedione]
1 | 2 |  | CN(C)CCSc1ccc(/C=c2\[nH]c(=O)/c(=C/c3ccccn3)[nH]c2=O)s1 [Compound 5471.HCl, (3Z,6Z)-6-(5-(2-Dimethylaminoethylthio)-2-thienyl)methylene-3-(2-pyridylmethylene)-2,5-piperazinedione]
0 | 22 |  | CN(C)CCSc1ccc(/C=c2\[nH]c(=O)/c(=C/c3ccncc3)[nH]c2=O)s1 [Compound 5472, (3Z,6Z)-6-(5-(2-Dimethylaminoethylthio)-2-thienyl)methylene-3-(4-pyridylmethylene)-2,5-piperazinedione]
25 | 61 | 13.8 | CN(C)CCSc1ccc(/C=c2\[nH]c(=O)/c(=C/c3cn(C)c4ccccc34)[nH]c2=O)s1 [Compound 5473, (3Z,6Z)-6-(5-(2-Dimethylaminoethylthio)-2-thienyl)methylene-3-(1-methyl-3-indolyl)methylene-2,5-piperazinedione]

From US5750530A, “Pharmaceutical diketopiperazine compounds” (Xenova Limited, priority 1994, dated 1998)
